Patent publication US5434247A, “Peptides for inducing monocyte cytotoxicity in diagnostics” (Board of Regents, The University of Texas System, priority 1992, dated 1995)
Entries after “also recorded” stand apart in the source; their conditions may differ. Read-outs that look alike come from different tables or passages of the source. *1 amine or outer side, *2 acyl side, *3 side chain or, on linkers, in order; H or OH if unused. Where a SMILES comes first, the peptide text is derived from it. Bridges are numbered along the chain shown (N, C = ends). Roman numbers before positions name the chains, in order. Where no end group is shown, it is not given here. [ ]: non-standard residue; d: D form. Actinocin(9to1) = Cc1c2oc3c(C)ccc(C(=O)[*:1])c3nc-2c(C(=O)[*:2])c(N)c1=O; NMeV = CN[C@H](C(=O)O)C(C)C; Sar = CNCC(=O)O

What was measured:
human monocytes / K562 = experiment: Human monocyte cytotoxicity assay (MCF assay), 111In-Ox labeled K562 targets; type: cell-based; details: for monocyte cytotoxicity inducing activity (in words) / concentration at which the peptide activates human blood monocytes for cytotoxicity: K562 target; for concentration at which the peptide activates human blood monocytes for cytotoxicity: purified peptide, monocytes of eight human donors
Experimental: FIG. 1. Hybrid cells were adjusted to 1×10^6 /ml and stimulated with 8 ug/ml PHA(+). […] to control (-) cultures, and both supernatants harvested by centrifugation. Monocyte cytotoxicity was measured as described herein with the exception that the monocyte monolayer was incubated overnight to allow for decay of NK cell activity. The monolayer was incubated for a second 24 hr period with dilutions of MCF containing supernatants. Dilutions represented are 1/4 in a total test volume of 0.2 ml. […] Microtiter plates were centrifuged 16 hrs later, and supernatants collected and counted. % specific release was calculated as described herein.
Only healthy volunteer donors were used. All volunteer donors signed an informed consent, and the protocol was approved by the Committee for the Protection of Human Subjects, University of Texas Health Science Center. Mononuclear cells were prepared by centrifugation over Ficoll/Hypaque. […] The monolayer was incubated overnight to allow for decay of residual natural killer activity before addition of lymphokine preparations on day 2.
The effector to target ratio was 30:1. […] After 18 hrs incubation of monocyte monolayer with target, the plates were centrifuged and supernatant was removed and cpms were counted in a Beckman Biogamma 2000. Specific release was calculated as described by Wiltrout, supra. […] Other tumor targets used were HL-60, L5178Y and TU5 (Table V).

FtF3 cells = experiment: Effects of metabolic inhibitors and tunicamycin on MCF production; type: cell-based, human; details: for effect on MCF production of PHA-stimulated FtF3 cells: cells incubated 4 h with inhibitor (0 to 100 ug/ml), washed, PHA 24 h; for effect on MCF production of nonstimulated (non-PHA treated) cells: puromycin at doses of 10-50 ug/ml; for biological activity of MCF after biosynthesis in the presence of the agent: tunicamycin 0, 1, 2.5 or 5.0 ug/ml
Experimental: FIG. 2. FtF3 cells were incubated 4 h with various doses of actinomycin D. Cells were washed and stimulated with PHA for 24 h before harvesting supernatants by centrifugation, extensive dialysis, and bioassay.( ) One set of each dose of inhibitor-treated cells was labelled with ^3 H-uridine, stimulated, lysed and harvested 24 h later, and counted by liquid scintillation.(.quadrature.) Viability of FtF3 at 24 h was greater than 80% at all doses tested.
FIG. 3. FtF3 cells were incubated 4 h with various doses of cycloheximide. Cells were washed and stimulated with PHA for 24 h before harvesting supernatants by centrifugation, extensive dialysis, and bioassay.( ) One set of each dose of inhibitor-treated cells was labelled with 3 H-amino acids, stimulated, TCA-precipitated 24 h later, and counted by liquid scintillation.(.quadrature.) Viability of FtF3 at 24 h was greater than 80% at all doses tested.
FIG. 4. FtF3 cells were incubated 4 h with various doses of puromycin. Cells were washed and resuspended either with ( ) or without (.quadrature.) PHA, and incubated 24 h before harvesting supernatants by centrifugation, extensive dialysis, and bioassay. Viability of FtF3 at 24 h was greater than 80% at all doses tested.
Urea treatment was accomplished by adding 3 grams of solid urea to 10 ml MCF (28.5 U/ml) (5M urea final). Extraction of MCF with butanol-diisopropyl ether was performed. FtF3 cells were cultured with 0, 1, 2.5 or 5.0 ug/ml tunicamycin. […] MCF supernatants were extracted with butanol-diisopropyl ether; the aqueous phase contained 36.7% less MCF than the control preparation.
FtF3 cells at a concentration of 1×10^6 /ml in RPMI 1640/10% FCS were incubated 4 hours with either actinomycin D, cycloheximide, or puromycin (all at 0 to 100 ug/ml, Sigma). Tests for viability after treatment were performed by trypan blue exclusion and supernatants were collected by centrifugation. In a second set of experiments FtF3 cells at the same concentration but using 0.1% human serum were incubated for 5 hours with either cycloheximide or puromycin. Uptake experiments were performed by adjusting FtF3 cells to 1×10^6 /ml in media after treatment with inhibitor, and adding either 5,6-^3 H-uridine (ICN Radiochemicals, Irvine, Calif., USA, […]) to actinomycin D treated cells or ^3 H L-amino acid mixture (25.5 mci/mg) to cycloheximide-treated cells at 1 uCi to 1×10^5 cells. Cells were subsequently lysed and counted by liquid scintillation.

[1] = Enzyme treatment of MCF supernatants; type: physicochemical; details: in contrast to MCF
Experimental: In order to treat MCF supernatants with enzymes, 10 ml of the supernatant (28.5 units/ml) were treated with 1 mg/ml trypsin at pH 7.4, 1 mg/ml chymotrypsin at pH 7.4, 0.5 mg/ml DNase at pH 7.4, or 40 units/ml RNase at pH 5 for 1 hour at 25° C. […] The experiments were repeated using insolubilized enzymes to minimize the possibility that enzymes could be carried over into the bioassay and could explain the results.

[2] = all doses tested, trypan blue exclusion

## GAAVLENSQ [MJ-1]
Human monocytes / K562
  monocyte cytotoxicity inducing activity (in words): capable of inducing human monocyte cytotoxicity; also recorded: found to have biological MCF activity
  concentration at which the peptide activates human blood monocytes for cytotoxicity: 10^-6 M
Human monocytes / K562; parallel assays, same human donors
  decrease in the biological activity of the peptide by the substitution, versus MJ-2: ~3 log fold

## GM-CSF: recombinant GM-CSF [reference compound]
Human monocytes / K562; cytokine added at 50 U/ml
  % specific lysis: -2.5 ± 15.9%
Human monocytes / K562; cytokine added at 100 U/ml
  % specific lysis: 5.7 ± 3.1%
Human monocytes / K562; cytokine added at 200 U/ml
  % specific lysis: -0.6 ± 4.9%

## COc1ccc(C[C@H](N)C(=O)N[C@H]2[C@@H](O)[C@H](n3cnc4c(N(C)C)ncnc43)O[C@@H]2CO)cc1 [puromycin]
FtF3 cells
  Viability of FtF3 at 24 h: greater than 80%
  lectin-induced MCF production with inhibitor present for the entire incubation period: suppressive in a dose-dependent manner
  effect on MCF production of PHA-stimulated FtF3 cells: suppressed but did not totally abolish
  effect on MCF production of nonstimulated (non-PHA treated) cells: appeared to stimulate

## C[C@@H]1C[C@@H]([C@H](O)CC2CC(=O)NC(=O)C2)C(=O)[C@@H](C)C1 [cycloheximide]
FtF3 cells
  lectin-induced MCF production with inhibitor present for the entire incubation period: not suppressed
  effect on MCF production of PHA-stimulated FtF3 cells: suppressed but did not abolish
  effect on MCF production of nonstimulated (non-PHA treated) cells: only a slight stimulatory effect
FtF3 cells; [2]
  Viability of FtF3 at 24 h: greater than 80%

## tunicamycin
FtF3 cells
  biological activity of MCF after biosynthesis in the presence of the agent: no significant change

## GAAVLEDSQ [MJ-2]
Human monocytes / K562
  monocyte cytotoxicity inducing activity (in words): exhibits the same high level activity as the intact protein of 29kD; also recorded: capable of activating human blood monocytes for tumor cytotoxicity; also recorded: to a similar extent as the intact protein of 29kD
  concentration at which the peptide activates human blood monocytes for cytotoxicity: approximately 10^-9 M

## Cc1c2oc3c(C)ccc(C(=O)N[C@@H]4C(=O)N[C@H](C(C)C)C(=O)N5CCC[C@H]5C(=O)N(C)CC(=O)N(C)[C@@H](C(C)C)C(=O)O[C@@H]4C)c3nc-2c(C(=O)N[C@@H]2C(=O)N[C@H](C(C)C)C(=O)N3CCC[C@H]3C(=O)N(C)CC(=O)N(C)[C@@H](C(C)C)C(=O)O[C@@H]2C)c(N)c1=O [actinomycin D] (I: T[dV]P[Sar][NMeV] / II: T[dV]P[Sar][NMeV]; ester I:1-I:C, II:1-II:C; linker I:N-II:N via Actinocin(9to1))
FtF3 cells; [2]
  Viability of FtF3 at 24 h: greater than 80%
FtF3 cells
  effect on MCF production of PHA-stimulated FtF3 cells: totally suppressed
  effect on MCF production of nonstimulated (non-PHA treated) cells: no effect

## rIL1β: recombinant IL 1 beta (Cistron Biotechnology) [reference compound]
Human monocytes / K562; cytokine added at 0.1 U/ml
  % specific lysis: -8.7 ± 2.8%
Human monocytes / K562; cytokine added at 1 U/ml
  % specific lysis: -4.9 ± 4.6%
Human monocytes / K562; cytokine added at 10 U/ml
  % specific lysis: -1.8 ± 9.6%

## Gly Ala Ala Val Leu (GAAVL; printed: Gly Ala Ala Val Leu) [MJ-3, truncated five-mer, native 5 N-terminal amino acids of P29]
Human monocytes / K562
  monocyte cytotoxicity inducing activity (in words): not determined to be above the background for the assay
Human monocytes / K562; listed as MJ3
  monocyte cytotoxicity inducing activity (in words): did not reliably exhibit biological activity
Human monocytes / K562; one experiment, input of 10^2 mg of protein
  specific release of label: 25%

## Leu Glu Asp Ser Gln (LEDSQ) [MJ-5]
Human monocytes / K562
  monocyte cytotoxicity inducing activity (in words): critical for biological activity

## IFN-α [reference compound]
Human monocytes / K562; cytokine added at 1 U/ml
  % specific lysis: 4.5 ± 3.0%
Human monocytes / K562; cytokine added at 10 U/ml
  % specific lysis: -5.4 ± 9.2%
Human monocytes / K562; cytokine added at 100 U/ml
  % specific lysis: -2.1 ± 12.4%
Human monocytes / K562; cytokine added at 1000 U/ml
  % specific lysis: -8.9 ± 8.8%

## OCCS [2-mercaptoethanol]
FtF3 cells
  biological activity of MCF after biosynthesis in the presence of the agent: no significant change

B1: IFN-γ: human gamma interferon (protein, UniProt P01579 24-161, looked up)
Interferon gamma: QDPYVKEAENLKKYFNAGHSDVADNGTLFLGILKNWKEESDRKIMQSQIVSFYFKLFKNFKDDQSIQKSVETIKEDMNVKFFNSNKKKRDDFEKLTNYSVTDLNVQRKAIHELIQVMAELSPAAKTGKRKRSQMLFRG
Human monocytes / K562
  monocyte cytotoxicity inducing activity (in words): only slight activity
Human monocytes / K562; amounts up to 1000 U/ml final concentration
  increase in specific lysis: 6.2%
Human monocytes / K562; cytokine added at 10 U/ml
  % specific lysis: -3.5 ± 1.1%
Human monocytes / K562; cytokine added at 100 U/ml
  % specific lysis: 3.4 ± 3.2%
Human monocytes / K562; cytokine added at 1000 U/ml
  % specific lysis: 6.2 ± 4.4%
[1]
  effect of trypsin: inactivated

B2: eIL1α: recombinant IL 1 alpha (Cistron Biotechnology) (protein, UniProt P01583 113-271, looked up)
Interleukin-1 alpha: SAPFSFLSNVKYNFMRIIKYEFILNDALNQSIIRANDQYLTAAALHNLDEAVKFDMGAYKSSKDDAKITVILRISKTQLYVTAQDEDQPVLLKEMPEIPKTITGSETNLLFFWETHGTKNYFTSVAHPNLFIATKQDYWVCLAGGPPSITDFQILENQA
Human monocytes / K562; cytokine added at 0.1 U/ml
  % specific lysis: -4.1 ± 4.1%
Human monocytes / K562; cytokine added at 1 U/ml
  % specific lysis: -3.6 ± 5.6%
Human monocytes / K562; cytokine added at 10 U/ml
  % specific lysis: -0.7 ± 7.6%

B3: m-CSF: purified m-CSF (protein, UniProt P09603 33-554, looked up)
Macrophage colony-stimulating …: EEVSEYCSHMIGSGHLQSLQRLIDSQMETSCQITFEFVDQEQLKDPVCYLKKAFLLVQDIMEDTMRFRDNTPNAIAIVQLQELSLRLKSCFTKDYEEHDKACVRTFYETPLQLLEKVKNVFNETKNLLDKDWNIFSKNCNNSFAECSSQDVVTKPDCNCLYPKAIPSSDPASVSPHQPLAPSMAPVAGLTWEDSEGTEGSSLLPGEQPLHTVDPGSAKQRPPRSTCQSFEPPETPVVKDSTIGGSPQPRPSVGAFNPGMEDILDSAMGTNWVPEEASGEASEIPVPQGTELSPSRPGGGSMQTEPARPSNFLSASSPLPASAKGQQPADVTGTALPRVGPVRPTGQDWNHTPQKTDHPSALLRDPPEPGSPRISSLRPQGLSNPSTLSAQPQLSRSHSSGSVLPLGELEGRRSTRDRRSPAEPEGGPASEGAARPLPRFNSVPLTDTGHERQSEGSFSPQLQESVFHLLVPSVILVLLAVGGLLFYRWRRRSHQEPQRADSPLEQPEGSPLTQDDRQVELPV
Human monocytes / K562; cytokine added at 17.3 U/ml
  % specific lysis: 26.0 ± 6.5%
Human monocytes / K562; cytokine added at 173 U/ml
  % specific lysis: 14.5 ± 4.6%
Human monocytes / K562; cytokine added at 1730 U/ml
  % specific lysis: -3.9 ± 4.7%
